In patent publication US20260248809A1, “ESTRADIOL PRODRUGS AND METHODS OF USE THEREOF” (UNIVERSITY OF MARYLAND, BALTIMORE, priority 2022, published 2026):

Legend:
Assay type in all cases: in vivo, mouse
male mice = experiment: Acquisition, extinction and reinstatement of cued (Pavlovian) fear; conditions: non-stressed orchiectomized males, 10 mm silastic implant
Experimental: Determine the role of E2 in the normal acquisition, extinction, and reinstatement of cued (Pavlovian) fear responses in males. The effect of orchiectomy on the acquisition, extinction, and reinstatement of fear in non-stressed male animals is determined. It has previously been reported that orchiectomy enhances tone conditioned freezing in male mice, which was prevented with systemic testosterone administration. It has also been reported that orchiectomy delayed extinction of fear responses in male rats. The role of E2 is known in mediating fear responses, extinction, and related cognitive functions in female rodents. Fear conditioning takes place in Coulbourn shuttle boxes. The floor of the chambers consists of parallel rods connected to a Coulbourn shock source that delivers foot shocks. A speaker mounted on the top of the chamber delivers an acoustic conditioned stimulus (pure tone). […] Mice are placed in the chamber for a 3 min habituation period, wherein baseline freezing to the novel context will be assessed. […] One week later, mice are assessed for reinstatement of the conditioned fear. […] Time spent freezing across CS presentations during the extinction procedure (Days 2 and 3) is assessed with Coulbourn automated FreezeFrame software. […] If differences between the groups are detected, then whether these effects are due to altered shock sensitivity, are assessed.

[1] = Body, testis and seminal vesicle weights after hormonal treatments
Experimental: For the chronic administration paradigms, silastic tubes (1.02 mm inner diameter×2.16 mm outer diameter) were filled with testosterone (10 mm) or 17β-Estradiol (E2; 1,3 and 10 mm; Sigma-Aldrich, St. Louis, MO, USA). Silastic implants were primed in 0.9% saline at 37° C. overnight prior to their subcutaneous use. Letrozole (1 mg/kg/day; Sigma-Aldrich, St. Louis, MO, USA) was dissolved in propylene glycol (MP Biomedicals, Santa Ana, CA, USA) and administered through ALZET minipumps (Model 1002, 0.25 μl/hour, 14 days; Cupertino, CA, USA). DHED (synthesized using previously described methods) was dissolved in 0.9% saline and administered through ALZET minipumps (Model 1002, 0.25 μl/hour, 14 days; Cupertino, CA, USA) at a dose of […]. Flutamide was administered through 1.5 mg slow-release subcutaneous pellets (Innovative Research of America, Sarasota, FL, USA). For acute administration, 17β-Estradiol (E2; 10 and […]) was dissolved in sesame oil (4 ml/kg, s.c.; Sigma-Aldrich, St. Louis, MO, USA).
Subcutaneous implantations were performed during the same time as the orchiectomies. The surgical area was thoroughly cleaned with Betadine solution (10% povidone-iodine surgical scrub) followed by 70% ethanol. A small, approximately 1-cm incision was made between the scapulae using a pair of small sterile surgical scissors. Hemostats were then inserted and spread laterally to the incision to create a cavity in the subcutaneous space in which ALZET mini-osmotic pumps or silastic implants were inserted for continuous drug/vehicle delivery. The skin was closed with suturing.

mice = experiment: Acoustic startle response after traumatic foot shock stress; conditions: acute foot shock stress, 10 mm silastic implant
Source text: Determine the role of E2 in traumatic stress-induced changes in startle response in males and females. Heightened startle reactivity is a DSM diagnostic criteria for PTSD. Individuals suffering from PTSD frequently report subjective elevations in startle response and objective studies have described increased startle reactivity in individuals with PTSD. Moreover, physiological startle response is correlated with the severity of self-reported hyperarousal symptom domains and attenuated by interventions that improve PTSD symptoms. In rodents, like humans, the startle response can be elicited by acoustic stimuli (acoustic startle response, ASR) and involves eyelid closure and skeletal muscle contractions. While ASR is frequently assessed via the eye blink reflex in humans, it can be accurately assayed via whole-body movements in rodents. Importantly, elevated ASR has been reported in rodents following traumatic stress, including electrical shock and social defeat stress. ASR is utilized as a measure of hyperarousal in mice following traumatic stress. Similar to previously described methods, ASR is assessed following acute foot shock stress. Baseline ASR is assessed over 10 startle stimuli (110 dB, pseudo-randomized average inter-stimulus interval of 30 sec). […] Changes in ASR are measured 24 hours after shock using the same startle protocol. […]

SMILES	orchiectomy-enhanced fear conditioning and reduced rate of extinction (male mice)	body weight ([1]; chronic treatment)	seminal vesicle weight ([1]; chronic treatment)	relative seminal vesicle weights ([1]; s.c. treatment, compared to vehicle (saline) control)	increased startle after stress+orchiectomy (mice)	testis weight ([1]; chronic treatment)
C[C@]12CC[C@@H]3c4ccc(O)cc4CC[C@H]3[C@@H]1CC[C@@H]2O [Example E2, 17β-Estradiol]	reverse this effect	increased body weight	increased	significant increase	recoverable	–
C[C@]12CC[C@H]3[C@@H](CCC4=CC(=O)CC[C@@]43C)[C@@H]1CC[C@@H]2O [Testosterone, testosterone]	prevented by testosterone	increased body weight	reversed	–	recoverable	decreased testis weight
